{"source": "patent US9095505B2", "about": "“Pyrethroids for treatment of ocular movement disorders” (RBG Group, LTD., priority 2013, dated 2015)", "test_system": "canine subjects", "assay": "Eye movement recording of nystagmus in canine subjects (amplitude, NAFX)", "type": "in vivo", "description": "Eye movements were recorded using an EyeLink 1000 remote video recording system, with a sampling rate of 500-1000 Hz.\nEfficacy was assessed by video-based eye tracking system wherein eye movement recordings of nystagmus and determination of Nystagmus Acuity Function (NAF, NAFX or eNAFX) was calculated from position and velocity data obtained from calibrated eye movement recordings. Techniques used to collect such data include a scleral search coil, non-contact infrared oculography, video pupillography and electroculography.\nNystagmus Acuity Function—NAF is a derived function that predicts the best-corrected visual acuity possible in subjects with nystagmus. NAF is based upon objective measurements of a subject's waveform characteristics during fixation of a small light-emitting diode and combines the foveation time per cycle and the standard deviations of both eye position and velocity during target foveation into a function that is linearly proportional to best-possible visual acuity.\nEvaluation of the nystagmus acuity function (NAF, NAFX, eNAFX) is often used to evaluate the quality of the nystagmus cycle and/or quantify the effect of surgical or pharmaceutical intervention on the nystagmus waveform. […]\nAmplitude—The amplitude of nystagmus was measured directly from calibrated eye movement recordings in degrees. […]", "note": "“Also recorded” adds a separate entry of the source."}
{"smiles": "CC1(C)C(/C=C(\\Cl)C(F)(F)F)C1C(=O)OC(C#N)c1cccc(Oc2ccccc2)c1", "note": "[LC, (R)-cyano(3-phenoxyphenyl)methyl(1S,3S)-rel-3-[(1Z)-2-chloro-3,3,3-trifluoro-1-propenyl]-2,2-dimethylcyclopropanecarboxylate]", "values": [{"measurement": "high frequency (9-11) Hz pendular oscillation in eye position recording", "setting": "after two doses of 0.6% topical eye drop, compared to Pre Drop recording of FIG. 1", "result": "less amplitude as compared to the Pre Drop eye movement recording; also recorded: only present only in extreme gaze"}, {"measurement": "effect on nystagmus", "setting": "after two doses of 0.6% w/w formulation", "result": "significant improvement of nystagmus"}]}
